The target in one assay is T1, bradykinin 1 receptor (B1R) of the rat (Rattus norvegicus, UniProt P97583).
T1 construct: expressed in transfected cells
T1 sequence (P97583 1-337): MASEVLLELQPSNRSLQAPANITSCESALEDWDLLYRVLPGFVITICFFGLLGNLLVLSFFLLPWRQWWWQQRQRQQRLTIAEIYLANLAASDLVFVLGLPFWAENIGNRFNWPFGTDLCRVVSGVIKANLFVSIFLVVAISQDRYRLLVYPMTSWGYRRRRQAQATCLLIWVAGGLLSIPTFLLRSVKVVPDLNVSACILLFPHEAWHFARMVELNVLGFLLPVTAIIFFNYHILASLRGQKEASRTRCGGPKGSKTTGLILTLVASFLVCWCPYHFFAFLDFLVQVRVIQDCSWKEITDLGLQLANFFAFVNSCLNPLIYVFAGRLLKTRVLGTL
The experiment in a line: FLIPR Ca2+ assay, B1R antagonism, rat. It is filed as cell-based. The conditions noted are these: 10 μM test substance; CHO K1 cells with rat B1R gene (rB1R cells); Des-Arg9-bradykinin at EC80; % inhibition compared with the maximum achievable inhibition; 10 µM. As for the experimental part:
The agonistic or antagonistic action of substances can be quantified on the bradykinin 1 receptor (B1R) of the human and rat species with ectopically expressing cell lines (CHO K1 cells) and with the aid of a Ca^2+-sensitive dyestuff (Fluo-4) in a fluorescent imaging plate reader (FLIPR). The figure in % activation is based on the Ca^2+ signal after addition of Lys-Des-Arg^9-bradykinin (0.5 nM) or Des-Arg^9-bradykinin (100 nM). Antagonists lead to a suppression of the Ca^2+ inflow after addition of the agonist. % inhibition compared with the maximum achievable inhibition is stated.
The agonistic or antagonistic action of substances can be determined on the bradykinin 1 receptor (B1R) of the human and rat species with the following assay. In accordance with this assay, the Ca^2+ inflow through the channel is quantified with the aid of a Ca^2+-sensitive dyestuff (type Fluo-4, Molecular Probes Europe BV, Leiden, Holland) in a fluorescent imaging plate reader (FLIPR, Molecular Devices, Sunnyvale, USA).
Chinese hamster ovary cells (CHO K1 cells) transfected stably with the human B1R gene (hB1R cells) or the B1R gene of the rat (rB1R cells) are used. For functional studies, these cells are plated out on black 96-well plates with a clear base (BD Biosciences, Heidelberg, Germany or Greiner, Frickenhausen, Germany) in a density of 20,000-35,000 cells/well. The cells are left overnight at 37° C. and 5% CO2 in culture medium (hB1R cells: Nutrient Mixture Ham's F12, Gibco Invitrogen GmbH, Karlsruhe, Germany or DMEM, Sigma-Aldrich, Taufkirchen, Germany; rB1R cells: D-MEM/F12, Gibco Invitrogen GmbH, Karlsruhe, Germany) with 10 vol. % FBS (foetal bovine serum, Gibco Invitrogen GmbH, Karlsruhe, Germany or PAN Biotech GmbH, Aidenbach, Germany).
On the following day, the cells are loaded for 60 min at 37° C. with 2.13 μM Fluo-4 (Molecular Probes Europe BV, Leiden, Holland) in HBSS buffer (Hank's buffered saline solution, Gibco Invitrogen GmbH, Karlsruhe, Germany) with 2.5 mM probenecid (Sigma-Aldrich, Taufkirchen, Germany) and 10 mM HEPES (Sigma-Aldrich, Taufkirchen, Germany). The plates are then washed 2× with HBSS buffer, and HBSS buffer which additionally contains 0.1% BSA (bovine serum albumin; Sigma-Aldrich, Taufkirchen, Germany), 5.6 mM glucose and 0.05% gelatine (Merck KGaA, Darmstadt, Germany) is added. After a further incubation of 20 minutes at room temperature, the plates are inserted into the FLIPR for the Ca^2+ measurement.
Alternatively, the plates are washed with buffer A (15 mM HEPES, 80 mM NaCl, 5 mM KCl, 1.2 mM CaCl2, 0.7 mM MgSO4, 2 g/l glucose, 2.5 mM probenecid), buffer A is added and the plates are loaded with 2.5 μM Fluo-4 and 0.025% Pluronic F127 (Sigma-Aldrich, Taufkirchen, Germany). Thereafter, the cells are washed 2× with buffer A and incubated for 30 minutes with buffer A, which additionally contains 0.05% BSA and 0.05% gelatine, at room temperature and thereafter inserted into the FLIPR for the Ca^2+ measurement.
The Ca^2+-dependent fluorescence is measured here before and after addition of substances (λex=488 nm, λem=540 nm). Quantification is by measurement of the highest fluorescence intensity (FC, fluorescence counts) over time.
The FLIPR protocol consists of 2 additions of substance. Test substances (10 μM) are first pipetted on to the cells and the Ca^2+ inflow is compared with the control (hB1R: Lys-Des-Arg^9-bradykinin >=50 nM; rB1R: Des-Arg^9-bradykinin 10 μM). This gives the figure in % activation based on the Ca^2+ signal after addition of Lys-Des-Arg^9-bradykinin (>=50 nM) or Des-Arg^9-bradykinin (10 μM).
After incubation for 10-20 minutes, Lys-Des-Arg^9-bradykinin (hB1R) or Des-Arg^9-bradykinin (rB1R) in the concentration of the EC80 is applied and the inflow of Ca^2+ is likewise determined. Antagonists lead to a suppression of the Ca^2+ inflow. % inhibition compared with the maximum achievable inhibition is calculated. […]
As to `COc1cc(C)c(S(=O)(=O)N2CCCCC2CCOCC(=O)N2CCC(OCCN3CCCC3)(c3cccnc3)CC2)c(C)c1` (centres unmarked) [Example 124, 2-[2-[1-[(4-methoxy-2,6-dimethyl-phenyl)sulfonyl]-piperidin-2-yl]-ethoxy]-1-[4-pyridin-3-yl-4-(2-pyrrolidin-1-yl-ethoxy)-piperidin-1-yl]-ethanone], the “B1R antagonism, rat [10 μM] % inhibition” value came to 98%.
For the compound `COc1cc(C)c(S(=O)(=O)N2CCCCC2CCOCC(=O)N2CCC(OCCN3CCCC3)(c3cccc(F)c3)CC2)c(C)c1` (centres unmarked) [Example 126, 1-[4-(3-fluorophenyl)-4-(2-pyrrolidin-1-yl-ethoxy)-piperidin-1-yl]-2-[2-[1-[(4-methoxy-2,6-dimethyl-phenyl)sulfonyl]-piperidin-2-yl]-ethoxy]-ethanone], the “B1R antagonism, rat [10 μM] % inhibition” value came out at 98%.
Consider `O=C(COCC1CCc2ccccc2N1S(=O)(=O)c1ccc2ccccc2c1)N1CCC(OCCN2CCCC2)(c2cccnc2)CC1` (centres unmarked) [Example 130, 2-[[1-(naphthalen-2-ylsulfonyl)-1,2,3,4-tetrahydro-quinolin-2-yl]-methoxy]-1-[4-pyridin-3-yl-4-(2-pyrrolidin-1-yl-ethoxy)-piperidin-1-yl]-ethanone], for which the “B1R antagonism, rat [10 μM] % inhibition” value came out at 83%.

The assay is the same for the next values; noted with them: CHO-K1, 10 μM test substance; CHO K1 cells with rat B1R gene (rB1R cells); Des-Arg9-bradykinin at EC80; % inhibition compared with the maximum achievable inhibition; read-out: B1R antagonism, rat [10 μM] % inhibition.
Take `COc1cc(C)c(S(=O)(=O)N2CCCCC2CCCC(=O)N2CCC(OCCN3CCCC3)(c3ccc(C(F)(F)F)cc3)CC2)c(C)c1` (centres unmarked) [Example 79, 4-[1-[(4-methoxy-2,6-dimethyl-phenyl)sulfonyl]-piperidin-2-yl]-1-[4-(2-pyrrolidin-1-yl-ethoxy)-4-[4-(trifluoromethyl)-phenyl]-piperidin-1-yl]-butan-1-one]: the inhibition (commonly the relative decrease from the control value, in per cent) at 10 µM is 100%.
As to `O=C(CCCC1CCCCN1S(=O)(=O)c1ccccc1C(F)(F)F)N1CCC(OCCN2CCCC2)(c2cccc(F)c2)CC1` (centres unmarked) [Example 86, 1-[4-(3-fluorophenyl)-4-(2-pyrrolidin-1-yl-ethoxy)-piperidin-1-yl]-4-[1-[[2-(trifluoromethyl)-phenyl]sulfonyl]-piperidin-2-yl]-butan-1-one], the inhibition at 10 µM stood at 102%.
`O=C(CCCC1CCCCN1S(=O)(=O)c1cccc2ccccc12)N1CCC(OCCN2CCCC2)(c2cccnc2)CC1` (centres unmarked) [Example 92, 4-[1-(naphthalen-1-ylsulfonyl)-piperidin-2-yl]-1-[4-pyridin-3-yl-4-(2-pyrrolidin-1-yl-ethoxy)-piperidin-1-yl]-butan-1-one]: the inhibition at 10 µM was 95%.
Take `O=C(CCCC1CCCCN1S(=O)(=O)c1cccc2ccccc12)N1CCC(OCCN2CCCC2)(c2cccc(F)c2)CC1` (centres unmarked) [Example 93, 1-[4-(3-fluorophenyl)-4-(2-pyrrolidin-1-yl-ethoxy)-piperidin-1-yl]-4-[1-(naphthalen-1-ylsulfonyl)-piperidin-2-yl]-butan-1-one]: the inhibition at 10 µM is 101%.
Take `O=C(CCCC1CCCCN1S(=O)(=O)c1cccc2ccccc12)N1CCC(OCCN2CCCC2)(c2ccncc2)CC1` (centres unmarked) [Example 94, 4-[1-(naphthalen-1-ylsulfonyl)-piperidin-2-yl]-1-[4-pyridin-4-yl-4-(2-pyrrolidin-1-yl-ethoxy)-piperidin-1-yl]-butan-1-one]: the inhibition at 10 µM is 59%.
For the compound `O=C(CCCC1CCCCN1S(=O)(=O)c1ccc2ccccc2c1)N1CCC(OCCN2CCCC2)(c2cccc(F)c2)CC1` (centres unmarked) [Example 96, 1-[4-(3-fluorophenyl)-4-(2-pyrrolidin-1-yl-ethoxy)-piperidin-1-yl]-4-[1-(naphthalen-2-ylsulfonyl)-piperidin-2-yl]-butan-1-one], the inhibition at 10 µM turned out to be 79%.
Take `CS(=O)(=O)N(CCOCC(=O)N1CCC(OCCN2CCCC2)(c2cccnc2)CC1)C(c1ccccc1)c1ccccc1` [Example 104, N-benzhydryl-N-[2-[2-oxo-2-[4-pyridin-3-yl-4-(2-pyrrolidin-1-yl-ethoxy)-piperidin-1-yl]-ethoxy]-ethyl]-methanesulfonic acid amide]: the inhibition at 10 µM was determined as 100%.
As to `CS(=O)(=O)N(CCOCC(=O)N1CCC(OCCN2CCCC2)(c2cccc(F)c2)CC1)C(c1ccccc1)c1ccccc1` [Example 105, N-benzhydryl-N-[2-[2-[4-(3-fluorophenyl)-4-(2-pyrrolidin-1-yl-ethoxy)-piperidin-1-yl]-2-oxo-ethoxy]-ethyl]-methanesulfonic acid amide], the inhibition at 10 µM stood at 99%.
For `O=C(COCC1COc2ccccc2N1S(=O)(=O)c1ccccc1C(F)(F)F)N1CCC(OCCN2CCCC2)(c2cccc(F)c2)CC1` (centres unmarked) [Example 111, 1-[4-(3-fluorophenyl)-4-(2-pyrrolidin-1-yl-ethoxy)-piperidin-1-yl]-2-[[4-[[2-(trifluoromethyl)-phenyl]sulfonyl]-3,4-dihydro-2H-[1,4]benzoxazin-3-yl]-methoxy]-ethanone], the inhibition at 10 µM was determined as 101%.
Regarding `COc1cc(C)c(S(=O)(=O)N2CCCCC2CCOCC(=O)N2CCC(OCCN3CCCC3)(c3cccnc3)CC2)c(C)c1` (centres unmarked) [Example 123, 2-[2-[1-[(4-methoxy-2,6-dimethyl-phenyl)sulfonyl]-piperidin-2-yl]-ethoxy]-1-[4-pyridin-3-yl-4-(2-pyrrolidin-1-yl-ethoxy)-piperidin-1-yl]-ethanone], the inhibition at 10 µM was 96%.
On to `COc1cc(C)c(S(=O)(=O)N2CCCCC2CCOCC(=O)N2CCC(OCCN3CCCC3)(c3cccc(F)c3)CC2)c(C)c1` (centres unmarked) [Example 125, 1-[4-(3-fluorophenyl)-4-(2-pyrrolidin-1-yl-ethoxy)-piperidin-1-yl]-2-[2-[1-[(4-methoxy-2,6-dimethyl-phenyl)sulfonyl]-piperidin-2-yl]-ethoxy]-ethanone], for which the inhibition at 10 µM stood at 99%.
As for `CN(CCCC(=O)N1CCC(OCCN2CCCC2)(c2cccc(F)c2)CC1)S(=O)(=O)c1cccc(C(F)(F)F)c1` [Example 127, N-[4-[4-(3-fluorophenyl)-4-(2-pyrrolidin-1-yl-ethoxy)-piperidin-1-yl]-4-oxo-butyl]-N-methyl-3-(trifluoromethyl)-benzenesulfonic acid amide], the inhibition at 10 µM came to 49%.
Regarding `O=C(CC1COc2ccccc2N1S(=O)(=O)c1ccc(Cl)cc1Cl)N1CCC(OCCN2CCCC2)(c2cccc(F)c2)CC1` (centres unmarked) [Example 128, 2-[4-[(2,4-dichlorophenyl)sulfonyl]-3,4-dihydro-2H-[1,4]benzoxazin-3-yl]-1-[4-(3-fluorophenyl)-4-(2-pyrrolidin-1-yl-ethoxy)-piperidin-1-yl]-ethanone], the inhibition at 10 µM is 41%.
In the case of `O=C(COCC1CCc2ccccc2N1S(=O)(=O)c1ccc2ccccc2c1)N1CCC(OCCN2CCCC2)(c2cccnc2)CC1` (centres unmarked) [Example 129, 2-[[1-(naphthalen-2-ylsulfonyl)-1,2,3,4-tetrahydro-quinolin-2-yl]-methoxy]-1-[4-pyridin-3-yl-4-(2-pyrrolidin-1-yl-ethoxy)-piperidin-1-yl]-ethanone], the inhibition at 10 µM amounted to 92%.
